Data: ChEMBL document CHEMBL1201861, “Genomics of Drug Sensitity in Cancer screening data, Wellcome Trust Sanger Institute”

Columns and labels:
Test in all cases: cells
T84 = format: functional, cell-based, Homo sapiens; settings: Homo sapiens, T84;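 further: growth inhibition measured with a cell viability readout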
Description: SANGER: Inhibition of human T84 cell growth in a cell viability assay.

COLO-824 = format: functional, cell-based, Homo sapiens; settings: Homo sapiens, COLO-824
Description: SANGER: Inhibition of human COLO-824 cell growth in a cell viability assay.

A 172 = format: functional, cell-based, Homo sapiens; settings: Homo sapiens, A 172;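 further: growth inhibition of A172 cells, measured with a cell viability readout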
Description: SANGER: Inhibition of human A172 cell growth in a cell viability assay.

M14 = format: functional, cell-based, Homo sapiens; settings: Homo sapiens, M14;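 further: growth inhibition of M14 cells, read out with a cell viability assay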
Description: SANGER: Inhibition of human M14 cell growth in a cell viability assay.

Huh-7 = format: functional, cell-based, Homo sapiens; settings: Homo sapiens, Huh-7;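 further: HuH-7 cell growth inhibition, read out with a cell viability assay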
Description: SANGER: Inhibition of human HuH-7 cell growth in a cell viability assay.

OAW-28 = format: functional, cell-based, Homo sapiens; settings: Homo sapiens, OAW-28;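 further: growth inhibition of OAW-28 cells, read out with a cell viability assay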
Description: SANGER: Inhibition of human OAW-28 cell growth in a cell viability assay.

GP5d = format: functional, cell-based, Homo sapiens; settings: Homo sapiens, GP5d;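 further: growth inhibition of human GP5d cells, read out with a cell viability assay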
Description: SANGER: Inhibition of human GP5d cell growth in a cell viability assay.

COR-L88 = format: functional, cell-based; settings: Homo sapiens;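 further: growth inhibition of COR-L88 cells, read out with a cell viability assay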
Description: SANGER: Inhibition of human COR-L88 cell growth in a cell viability assay.

NCI-H1650 = format: functional, cell-based, Homo sapiens; settings: Homo sapiens, NCI-H1650;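 further: growth inhibition of human NCI-H1650 cells measured by a cell viability assay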
Description: SANGER: Inhibition of human NCI-H1650 cell growth in a cell viability assay.

CP66-MEL = format: functional, cell-based, Homo sapiens; settings: Homo sapiens, CP66-MEL;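 further: growth inhibition of CP66-MEL cells determined in a cell viability assay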
Description: SANGER: Inhibition of human CP66-MEL cell growth in a cell viability assay.

SW1710 = format: functional, cell-based, Homo sapiens; settings: Homo sapiens, SW1710;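 further: growth inhibition of SW1710 cells, determined with a cell viability assay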
Description: SANGER: Inhibition of human SW1710 cell growth in a cell viability assay.

COR-L105 = format: functional, cell-based, Homo sapiens; settings: Homo sapiens, COR-L105;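 further: cell growth inhibition determined with a viability assay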
Description: SANGER: Inhibition of human COR-L105 cell growth in a cell viability assay.

DMS-114 = format: functional, cell-based, Homo sapiens; settings: Homo sapiens, DMS-114
HT-1376 = format: functional, cell-based, Homo sapiens; settings: Homo sapiens, HT-1376
Description: SANGER: Inhibition of human HT-1376 cell growth in a cell viability assay.

NB69 = format: functional, cell-based, Homo sapiens; settings: Homo sapiens, NB69;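 further: growth inhibition of NB69 cells, determined by a cell viability assay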
Description: SANGER: Inhibition of human NB69 cell growth in a cell viability assay.

CAL-120 = format: functional, cell-based, Homo sapiens; settings: Homo sapiens, CAL-120;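 further: cell growth inhibition, read out as cell viability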
Description: SANGER: Inhibition of human CAL-120 cell growth in a cell viability assay.

NCI-H1563 = format: functional, cell-based, Homo sapiens; settings: Homo sapiens, NCI-H1563;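 further: growth inhibition of human NCI-H1563 cells, read out with a cell viability assay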
Description: SANGER: Inhibition of human NCI-H1563 cell growth in a cell viability assay.

DoTc2-4510 = format: functional, cell-based, Homo sapiens; settings: Homo sapiens, DoTc2-4510
NCI-N87 = format: functional, cell-based, Homo sapiens; settings: Homo sapiens, NCI-N87;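 further: growth inhibition of human NCI-N87 cells, read out with a cell viability assay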
Description: SANGER: Inhibition of human NCI-N87 cell growth in a cell viability assay.

EW-16 = format: functional, cell-based, Homo sapiens; settings: Homo sapiens, EW-16;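 further: growth inhibition of human EW-16 cells, read out as cell viability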
Description: SANGER: Inhibition of human EW-16 cell growth in a cell viability assay.

HD-MY-Z = format: functional, cell-based, Homo sapiens; settings: Homo sapiens, HD-MY-Z;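 further: growth inhibition of HD-MY-Z cells, read out with a cell viability assay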
Description: SANGER: Inhibition of human HD-MY-Z cell growth in a cell viability assay.

VA-ES-BJ = format: functional, cell-based, Homo sapiens; settings: Homo sapiens, VA-ES-BJ;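 further: growth inhibition of the VA-ES-BJ cell line, read out by a cell viability assay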
Description: SANGER: Inhibition of human VA-ES-BJ cell growth in a cell viability assay.

IST-MES1 = format: functional, cell-based, Homo sapiens; settings: Homo sapiens, IST-MES1;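 further: growth inhibition of IST-MES1 cells, measured with a cell viability assay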
Description: SANGER: Inhibition of human IST-MES1 cell growth in a cell viability assay.

NCI-H596 = format: functional, cell-based, Homo sapiens; settings: Homo sapiens, NCI-H596;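 further: growth inhibition of NCI-H596 cells, read out with a cell viability assay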
Description: SANGER: Inhibition of human NCI-H596 cell growth in a cell viability assay.

P30-OHK = format: functional, cell-based; settings: Homo sapiens;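 further: growth inhibition of the P30-OHK cell line, read out with a cell viability assay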
Description: SANGER: Inhibition of human P30-OHK cell growth in a cell viability assay.

SF-268 = format: functional, cell-based, Homo sapiens; settings: Homo sapiens, SF-268;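 further: growth inhibition of SF-268 cells determined with a cell viability assay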
Description: SANGER: Inhibition of human SF268 cell growth in a cell viability assay.

PANC-03-27 = format: functional, cell-based, Homo sapiens; settings: Homo sapiens, PANC-03-27
Description: SANGER: Inhibition of human PANC-03-27 cell growth in a cell viability assay.

SW1990 = format: functional, cell-based, Homo sapiens; settings: Homo sapiens, SW1990;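 further: cell growth inhibition determined with a viability assay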
Description: SANGER: Inhibition of human SW1990 cell growth in a cell viability assay.

UMUC3 = format: functional, cell-based, Homo sapiens; settings: Homo sapiens, UMUC3;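 further: growth inhibition of human UM-UC-3 cells, read out with a cell viability assay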
Description: SANGER: Inhibition of human UM-UC-3 cell growth in a cell viability assay.

MDA-MB-175-VII = format: functional, cell-based, Homo sapiens; settings: Homo sapiens, MDA-MB-175-VII
MMAC-SF = format: functional, cell-based, Homo sapiens; settings: Homo sapiens, MMAC-SF;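 further: growth inhibition of human MMAC-SF cells, read out with a cell viability assay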
Description: SANGER: Inhibition of human MMAC-SF cell growth in a cell viability assay.

DBTRG-05MG = format: functional, cell-based, Homo sapiens; settings: Homo sapiens, DBTRG-05MG;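 further: cell viability assay measuring growth inhibition of human DBTRG-05MG cells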
Description: SANGER: Inhibition of human DBTRG-05MG cell growth in a cell viability assay.

G-401 = format: functional, cell-based, Homo sapiens; settings: Homo sapiens, G-401
Description: SANGER: Inhibition of human G-401 cell growth in a cell viability assay.

K562 = format: functional, cell-based; settings: Homo sapiens
Description: SANGER: Inhibition of human K-562 cell growth in a cell viability assay.

ES3 = format: functional, cell-based, Homo sapiens; settings: Homo sapiens, ES3;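 further: growth inhibition of ES3 cells, read out with a cell viability assay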
Description: SANGER: Inhibition of human ES3 cell growth in a cell viability assay.

NCI-H23 = format: functional, cell-based, Homo sapiens; settings: Homo sapiens, NCI-H23;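 further: cell viability assay measuring growth inhibition of NCI-H23 cells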
Description: SANGER: Inhibition of human NCI-H23 cell growth in a cell viability assay.

AU565 = format: functional, cell-based, Homo sapiens; settings: Homo sapiens, AU565;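 further: cell viability assay measuring growth inhibition of human AU565 cells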
Description: SANGER: Inhibition of human AU565 cell growth in a cell viability assay.

NB13 = format: functional, cell-based, Homo sapiens; settings: Homo sapiens, NB13;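 further: cell viability readout measuring growth inhibition of human NB13 cells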
Description: SANGER: Inhibition of human NB13 cell growth in a cell viability assay.

CW-2 = format: functional, cell-based, Homo sapiens; settings: Homo sapiens, CW-2;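 further: growth inhibition of CW-2 cells, read out by a cell viability assay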
Description: SANGER: Inhibition of human CW-2 cell growth in a cell viability assay.

SK-N-FI = format: functional, cell-based, Homo sapiens; settings: Homo sapiens, SK-N-FI;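 further: cell viability assay measuring growth inhibition of human SK-N-FI cells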
Description: SANGER: Inhibition of human SK-N-FI cell growth in a cell viability assay.

K5 = format: functional, cell-based, Homo sapiens; settings: Homo sapiens, K5
Description: SANGER: Inhibition of human K5 cell growth in a cell viability assay.

D-247MG = format: functional, cell-based, Homo sapiens; settings: Homo sapiens, D-247MG
Description: SANGER: Inhibition of human D-247MG cell growth in a cell viability assay.

U-118-MG = format: functional, cell-based, Homo sapiens; settings: Homo sapiens, U-118-MG
Description: SANGER: Inhibition of human U-118-MG cell growth in a cell viability assay.

GI-1 = format: functional, cell-based, Homo sapiens; settings: Homo sapiens, GI-1;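 further: growth inhibition of human GI-1 cells, measured with a cell viability readout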
Description: SANGER: Inhibition of human GI-1 cell growth in a cell viability assay.

ASPC1 = format: functional, cell-based, Homo sapiens; settings: Homo sapiens, ASPC1;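 further: growth inhibition of AsPC-1 cells, read out with a cell viability assay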
Description: SANGER: Inhibition of human AsPC-1 cell growth in a cell viability assay.

MN-60 = format: functional, cell-based; settings: Homo sapiens;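 further: growth inhibition of the MN-60 cell line, determined with a cell viability assay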
Description: SANGER: Inhibition of human MN-60 cell growth in a cell viability assay.

LB2518-MEL = format: functional, cell-based, Homo sapiens; settings: Homo sapiens, LB2518-MEL;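 further: growth inhibition of human LB2518-MEL cells, measured with a cell viability assay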
Description: SANGER: Inhibition of human LB2518-MEL cell growth in a cell viability assay.

LB771-HNC = format: functional, cell-based, Homo sapiens; settings: Homo sapiens, LB771-HNC;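 further: growth inhibition of LB771-HNC human cells, read out with a cell viability assay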
Description: SANGER: Inhibition of human LB771-HNC cell growth in a cell viability assay.

ACHN = format: functional, cell-based, Homo sapiens; settings: Homo sapiens, ACHN;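 further: cell viability read-out used to gauge how strongly growth of human ACHN cells is suppressed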
Description: SANGER: Inhibition of human ACHN cell growth in a cell viability assay.

Question: How did the IC50 (T84) turn out when `C=CCNC1=C2C[C@@H](C)C[C@H](OC)[C@H](O)[C@@H](C)/C=C(\C)[C@H](OC(N)=O)[C@@H](OC)/C=C\C=C(/C)C(=O)NC(=CC1=O)C2=O` [TANESPIMYCIN] was run?
Answer: > 1000 nM

Question: And the IC50 (COLO-824)?
Answer: 173 nM

Question: And the IC50 (A 172)?
Answer: 210 nM

Question: And the IC50 (M14)?
Answer: 79.1 nM

Question: What about the IC50 (Huh-7) of the same compound?
Answer: > 1000 nM

Question: And the IC50 (OAW-28)?
Answer: > 1000 nM

Question: And the IC50 (GP5d)?
Answer: 141 nM

Question: And the IC50 (COR-L88)?
Answer: 49.1 nM

Question: And the IC50 (NCI-H1650)?
Answer: 201 nM

Question: And the IC50 (CP66-MEL)?
Answer: 610 nM

Question: What about the IC50 (SW1710) of the same compound?
Answer: 295 nM

Question: And the IC50 (COR-L105)?
Answer: > 1000 nM

Question: What about the IC50 (DMS-114) of the same compound?
Answer: > 1000 nM

Question: What about the IC50 (HT-1376) of the same compound?
Answer: 169 nM

Question: What about the IC50 (NB69) of the same compound?
Answer: 271 nM

Question: And the IC50 (CAL-120)?
Answer: 534 nM

Question: And the IC50 (NCI-H1563)?
Answer: 949 nM

Question: And the IC50 (DoTc2-4510)?
Answer: 208 nM

Question: What about the IC50 (NCI-N87) of the same compound?
Answer: 25.9 nM

Question: And the IC50 (EW-16)?
Answer: > 1000 nM

Question: And the IC50 (HD-MY-Z)?
Answer: 109 nM

Question: And the IC50 (VA-ES-BJ)?
Answer: 44.5 nM

Question: What about the IC50 (IST-MES1) of the same compound?
Answer: > 1000 nM

Question: What about the IC50 (NCI-H596) of the same compound?
Answer: > 1000 nM

Question: What about the IC50 (P30-OHK) of the same compound?
Answer: > 1000 nM

Question: What about the IC50 (SF-268) of the same compound?
Answer: 643 nM

Question: What about the IC50 (PANC-03-27) of the same compound?
Answer: 103 nM

Question: What about the IC50 (SW1990) of the same compound?
Answer: 122 nM

Question: And the IC50 (UMUC3)?
Answer: 455 nM

Question: What about the IC50 (MDA-MB-175-VII) of the same compound?
Answer: 33.5 nM

Question: What about the IC50 (MMAC-SF) of the same compound?
Answer: 105 nM

Question: And the IC50 (DBTRG-05MG)?
Answer: 581 nM

Question: What about the IC50 (G-401) of the same compound?
Answer: 104 nM

Question: And the IC50 (K562)?
Answer: > 1000 nM

Question: What about the IC50 (ES3) of the same compound?
Answer: 591 nM

Question: And the IC50 (NCI-H23)?
Answer: 26.6 nM

Question: What about the IC50 (AU565) of the same compound?
Answer: > 1000 nM

Question: And the IC50 (NB13)?
Answer: 368 nM

Question: And the IC50 (CW-2)?
Answer: > 1000 nM

Question: And the IC50 (SK-N-FI)?
Answer: > 1000 nM

Question: What about the IC50 (K5) of the same compound?
Answer: 244 nM

Question: What about the IC50 (D-247MG) of the same compound?
Answer: 94.5 nM

Question: And the IC50 (U-118-MG)?
Answer: 276 nM

Question: What about the IC50 (GI-1) of the same compound?
Answer: 146 nM

Question: And the IC50 (ASPC1)?
Answer: 152 nM

Question: What about the IC50 (MN-60) of the same compound?
Answer: > 1000 nM

Question: What about the IC50 (LB2518-MEL) of the same compound?
Answer: 258 nM

Question: What about the IC50 (LB771-HNC) of the same compound?
Answer: > 1000 nM

Question: What about the IC50 (ACHN) of the same compound?
Answer: 606 nM

Question: How did the IC50 (T84) turn out when `CCC1=C[C@@H]2CN(C1)Cc1c([nH]c3ccccc13)[C@@](C(=O)OC)(c1cc3c(cc1OC)N(C)[C@H]1[C@@](O)(C(=O)OC)[C@H](OC(C)=O)[C@]4(CC)C=CCN5CC[C@]31[C@@H]54)C2` [VINORELBINE] was run?
Answer: 53.9 nM

Question: What about the IC50 (COLO-824) of the same compound?
Answer: 47.2 nM

Question: And the IC50 (A 172)?
Answer: 13.9 nM

Question: What about the IC50 (M14) of the same compound?
Answer: 21.1 nM

Question: What about the IC50 (Huh-7) of the same compound?
Answer: 29.6 nM

Question: What about the IC50 (OAW-28) of the same compound?
Answer: 15.2 nM

Question: What about the IC50 (GP5d) of the same compound?
Answer: 7.84 nM

Question: What about the IC50 (COR-L88) of the same compound?
Answer: 34.8 nM

Question: And the IC50 (NCI-H1650)?
Answer: 40.7 nM

Question: What about the IC50 (CP66-MEL) of the same compound?
Answer: 45.1 nM

Question: And the IC50 (SW1710)?
Answer: 2.33 nM

Question: And the IC50 (COR-L105)?
Answer: 30.9 nM

Question: What about the IC50 (DMS-114) of the same compound?
Answer: > 64 nM

Question: And the IC50 (HT-1376)?
Answer: 31.5 nM

Question: And the IC50 (NB69)?
Answer: 45.5 nM

Question: And the IC50 (CAL-120)?
Answer: 43.6 nM

Question: And the IC50 (NCI-H1563)?
Answer: 12.8 nM

Question: And the IC50 (DoTc2-4510)?
Answer: 3.59 nM

Question: What about the IC50 (NCI-N87) of the same compound?
Answer: 44.1 nM

Question: What about the IC50 (EW-16) of the same compound?
Answer: 4.35 nM

Question: And the IC50 (HD-MY-Z)?
Answer: 29.2 nM

Question: And the IC50 (VA-ES-BJ)?
Answer: 4.23 nM

Question: What about the IC50 (IST-MES1) of the same compound?
Answer: > 64 nM

Question: And the IC50 (NCI-H596)?
Answer: > 64 nM

Question: What about the IC50 (P30-OHK) of the same compound?
Answer: 10.1 nM

Question: And the IC50 (SF-268)?
Answer: 16.3 nM

Question: What about the IC50 (PANC-03-27) of the same compound?
Answer: 5.95 nM

Question: And the IC50 (SW1990)?
Answer: > 64 nM

Question: And the IC50 (UMUC3)?
Answer: 21.2 nM

Question: What about the IC50 (MDA-MB-175-VII) of the same compound?
Answer: > 64 nM

Question: And the IC50 (MMAC-SF)?
Answer: 20.5 nM

Question: What about the IC50 (DBTRG-05MG) of the same compound?
Answer: 3.88 nM

Question: And the IC50 (G-401)?
Answer: 7.87 nM

Question: What about the IC50 (K562) of the same compound?
Answer: > 64 nM

Question: And the IC50 (ES3)?
Answer: 28.1 nM

Question: What about the IC50 (NCI-H23) of the same compound?
Answer: 60.1 nM

Question: And the IC50 (AU565)?
Answer: 8.19 nM

Question: What about the IC50 (NB13) of the same compound?
Answer: 5.01 nM

Question: And the IC50 (CW-2)?
Answer: > 64 nM

Question: What about the IC50 (SK-N-FI) of the same compound?
Answer: > 64 nM

Question: And the IC50 (K5)?
Answer: 41.9 nM

Question: And the IC50 (D-247MG)?
Answer: 12.6 nM

Question: What about the IC50 (U-118-MG) of the same compound?
Answer: > 64 nM

Question: What about the IC50 (GI-1) of the same compound?
Answer: 3.54 nM

Question: And the IC50 (ASPC1)?
Answer: > 64 nM

Question: What about the IC50 (MN-60) of the same compound?
Answer: > 64 nM

Question: And the IC50 (LB2518-MEL)?
Answer: > 64 nM

Question: What about the IC50 (LB771-HNC) of the same compound?
Answer: 8.59 nM

Question: And the IC50 (ACHN)?
Answer: 45.8 nM
